Data as given in US12448369B2 (Edgewise Therapeutics, Inc., priority 2023, dated 2025).

What was measured:
[1] = system: Porcine atria myofibrils (atrial myosin ATPase); experiment: Myofibril ATPase assay, porcine atria myofibrils; type: biochemical; conditions: porcine atria myofibrils
Summary of the method: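 Porcine atrial myofibrils were tested in a PK/LDH-coupled system where ADP from myosin ATPase drives NADH oxidation. Absorbance at 340 nm was read every 1.5-2 min for 75 min and slopes were normalized to vehicle wells. A 4-parameter logistic fit gave Y75 (25% inhibition) or Y125 (activation) concentrations.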

[2] = system: Rabbit Psoas myofibrils (skeletal myosin ATPase); experiment: Myofibril ATPase assay, rabbit psoas (skeletal) myofibrils; type: biochemical; conditions: rabbit psoas myofibrils
Summary of the method: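 ATPase activity of Triton-washed myofibrils was measured by PK/LDH coupling, following NADH loss at 340 nm every 1.5–2 min for 75 min in PIPES/Ca/EGTA buffer at pH 7.0. Slopes, normalized to vehicle (100%), were fitted to a 4-parameter logistic model. Values are Y75 (25% inhibition) or Y125 (activators).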

[3] = biological target: T1, Porcine ventricle myofibrils (ventricular myosin ATPase) (Sus scrofa, UniProt P79293); experiment: Myofibril ATPase assay, porcine ventricle myofibrils; type: biochemical, porcine (Yucatan minipigs); conditions: porcine ventricle myofibrils
T1 construct: Myofibrils from porcine cardiac muscle was isolated from the left ventricle of Yucatan minipigs; tissue Exemplar Genetics; host or cells: left ventricle of Yucatan minipigs, myofibrils prepared in house
Summary of the method: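 Read-out: A340 kinetic, NADH consumption coupled to ADP via PK-LDH, 75 min. Yucatan minipig LV myofibrils, pCa buffer (PIPES/CaCl2/EGTA, pH 7.0). Linear-regression slope (mAU/min), vehicle = 100%, 4PL fit; Y75 or Y125 reported.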

[4] = Y75 value (75% activity relative to no compound)

T1 sequence (P79293 whole entry): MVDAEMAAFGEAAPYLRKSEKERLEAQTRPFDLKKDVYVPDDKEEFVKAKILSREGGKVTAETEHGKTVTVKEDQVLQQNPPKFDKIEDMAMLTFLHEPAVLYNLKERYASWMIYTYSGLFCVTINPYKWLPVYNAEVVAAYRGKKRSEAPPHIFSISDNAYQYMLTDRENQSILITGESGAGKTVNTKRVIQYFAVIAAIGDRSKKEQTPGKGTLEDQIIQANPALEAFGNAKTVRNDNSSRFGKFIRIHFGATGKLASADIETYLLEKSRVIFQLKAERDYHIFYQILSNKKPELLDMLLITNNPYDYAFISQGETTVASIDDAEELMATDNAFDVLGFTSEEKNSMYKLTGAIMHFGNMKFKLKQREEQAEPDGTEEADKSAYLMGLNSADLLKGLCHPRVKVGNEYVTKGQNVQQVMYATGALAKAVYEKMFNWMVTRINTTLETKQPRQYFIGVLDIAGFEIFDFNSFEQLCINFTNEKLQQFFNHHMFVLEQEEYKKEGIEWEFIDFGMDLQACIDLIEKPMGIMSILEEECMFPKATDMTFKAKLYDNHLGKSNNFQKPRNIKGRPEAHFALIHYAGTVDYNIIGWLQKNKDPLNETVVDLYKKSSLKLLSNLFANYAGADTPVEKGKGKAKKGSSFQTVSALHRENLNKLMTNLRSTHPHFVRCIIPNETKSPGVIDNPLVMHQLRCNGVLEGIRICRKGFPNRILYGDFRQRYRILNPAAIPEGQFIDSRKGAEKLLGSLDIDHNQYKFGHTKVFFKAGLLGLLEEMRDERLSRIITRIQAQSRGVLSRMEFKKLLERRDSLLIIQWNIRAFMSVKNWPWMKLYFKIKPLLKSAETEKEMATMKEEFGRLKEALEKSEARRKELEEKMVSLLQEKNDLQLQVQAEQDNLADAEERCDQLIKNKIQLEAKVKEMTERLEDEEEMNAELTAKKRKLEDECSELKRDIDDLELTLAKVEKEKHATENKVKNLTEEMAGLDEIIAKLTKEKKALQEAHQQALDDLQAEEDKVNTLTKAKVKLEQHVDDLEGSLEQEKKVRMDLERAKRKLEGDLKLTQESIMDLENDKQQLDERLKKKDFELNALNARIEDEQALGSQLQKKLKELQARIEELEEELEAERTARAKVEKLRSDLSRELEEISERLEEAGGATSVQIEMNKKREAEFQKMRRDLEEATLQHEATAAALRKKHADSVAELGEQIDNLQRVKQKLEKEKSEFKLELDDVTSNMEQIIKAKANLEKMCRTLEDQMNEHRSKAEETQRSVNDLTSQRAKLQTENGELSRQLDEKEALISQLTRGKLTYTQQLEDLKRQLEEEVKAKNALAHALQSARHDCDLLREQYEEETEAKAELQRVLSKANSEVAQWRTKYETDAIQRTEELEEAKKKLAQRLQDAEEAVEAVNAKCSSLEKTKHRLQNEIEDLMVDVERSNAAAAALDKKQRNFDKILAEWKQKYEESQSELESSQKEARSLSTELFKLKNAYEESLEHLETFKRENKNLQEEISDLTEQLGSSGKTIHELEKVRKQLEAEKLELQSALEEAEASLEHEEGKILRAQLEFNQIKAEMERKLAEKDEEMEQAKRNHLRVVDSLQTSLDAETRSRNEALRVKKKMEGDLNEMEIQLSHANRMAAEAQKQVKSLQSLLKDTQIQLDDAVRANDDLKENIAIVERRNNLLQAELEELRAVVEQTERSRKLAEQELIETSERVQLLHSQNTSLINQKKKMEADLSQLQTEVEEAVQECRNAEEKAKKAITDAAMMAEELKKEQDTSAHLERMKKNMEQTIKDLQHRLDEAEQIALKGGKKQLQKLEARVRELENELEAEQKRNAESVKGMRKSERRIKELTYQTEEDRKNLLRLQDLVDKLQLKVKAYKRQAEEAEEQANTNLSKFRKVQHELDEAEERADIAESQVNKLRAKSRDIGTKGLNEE

Row | Compound | Atrial EC25 ([1]; ‡ Y125 value, not a Y75 value (125% activity relative to no compound)) | Skeletal EC25 ([2]; Y75 value (no ‡ mark)) | Ventricular EC25 ([3]; Y75 value (no ‡ mark)) | Atrial EC25 [1, 4] | Skeletal EC25 ([2]; Y75 value) | Ventricular EC25 ([3]; Y75 value) | Atrial EC25 ([1]; Y75 value (no ‡ mark))
1 | Cc1c(CC(=O)N[C@H](C)c2ncc(C#N)cn2)c(=O)[nH]c2ccc(F)c(C3CC3)c12 (single isomer, unassigned) [compound 2059] | 100.00‡ μM | 1090 nM | 56970 nM | – | – | – | –
2 | C[C@H](NC(=O)[C@@H](C)c1cc2nc(F)ccc2[nH]c1=O)c1ccc(F)cc1F (single isomer, unassigned) [compound 364] | – | – | – | 1.16 µM | 440 nM | 4710 nM | –
3 | C[C@H](NC(=O)C(F)(F)c1cc2c(F)c(F)ccc2[nH]c1=O)c1cc(C#N)ccn1 (single isomer, unassigned) [compound 2558] | – | 100000 nM | 81970 nM | – | – | – | 31.66 µM
4 | C[C@H](NC(=O)C(F)(F)c1cc2c(F)c(F)ccc2[nH]c1=O)c1ncc(C#N)cn1 (single isomer, unassigned) [compound 2546] | – | 190 nM | 1230 nM | – | – | – | 0.20 µM
5 | Cc1c(CC(=O)N[C@@H](CO)c2ccc(C#N)cc2F)c(=O)[nH]c2ccnc(OC3CC3)c12 [compound 204] | – | – | – | 0.47 µM | 70 nM | 7780 nM | –
6 | C[C@H](NC(=O)Cc1c(C(F)(F)F)c2ccccc2[nH]c1=O)c1ccc(F)cc1F [compound 129] | – | 40 nM | 750 nM | – | – | – | 0.21 µM
7 | Cc1c(CC(=O)N[C@@H](C)c2ccc(S(C)(=O)=O)cc2F)c(=O)[nH]c2ccnc(C#N)c12 (single isomer, unassigned) [compound 215] | – | – | – | 100.00 µM | 100000 nM | 100000 nM | –
8 | Cc1nccc2[nH]c(=O)c(C(F)(F)C(=O)N[C@H](CO)c3ncc(C#N)cc3F)c(C)c12 (single isomer, unassigned) [compound 3522] | – | – | – | 1.10 µM | 280 nM | 2900 nM | –
9 | C[C@H](NC(=O)Cc1cc2c(C#N)cccc2[nH]c1=O)c1ncc(C#N)cn1 (single isomer, unassigned) [compound 2038] | – | 100000 nM | 100000 nM | – | – | – | 100.00 µM
10 | Cc1c(C(F)(F)C(=O)N[C@H](C)c2ncc(F)cc2F)c(=O)[nH]c2ccc(F)cc12 (single isomer, unassigned) [compound 4819] | – | 1020 nM | 2650 nM | – | – | – | 0.28 µM
11 | Cc1c(CC(=O)N[C@H](C)c2cnc(C#N)nc2)c(=O)[nH]c2ccc(F)cc12 [compound 1100] | – | 530 nM | 2270 nM | – | – | – | 0.77 µM
12 | Cc1nccc2[nH]c(=O)c(CC(=O)N[C@@H](CO)c3ncc(F)cc3F)c(C)c12 (single isomer, unassigned) [compound 308] | – | – | – | 1.07 µM | 1820 nM | 12240 nM | –
13 | C[C@@H](NC(=O)C(F)(F)c1cc2c(F)c(F)ccc2[nH]c1=O)c1ncc(C#N)cn1 (single isomer, unassigned) [compound 2545] | – | 130 nM | 1220 nM | – | – | – | 7.98 µM
14 | Cc1c(CC(=O)N[C@H](C)c2ncc(C#N)cn2)c(=O)[nH]c2ccc(F)cc12 [compound 1070] | – | 2500 nM | 1720 nM | – | – | – | 0.22 µM
15 | Cc1c(F)ccc2[nH]c(=O)c(C(F)(F)C(=O)N[C@H](C)c3ncc(C#N)cn3)c(C#N)c12 (single isomer, unassigned) [Compound 2511] | – | 280 nM | 2640 nM | – | – | – | 0.76 µM
16 | Cc1c(C(F)(F)C(=O)N[C@H](C)c2cnc(C#N)cn2)c(=O)[nH]c2ccc(F)cc12 (single isomer, unassigned) [compound 2563] | – | 120 nM | 540 nM | – | – | – | 0.15 µM

Row | Compound | Atrial EC25 ([1]; ‡ Y125 value, not a Y75 value (125% activity relative to no compound)) | Skeletal EC25 ([2]; Y75 value (no ‡ mark)) | Ventricular EC25 ([3]; Y75 value (no ‡ mark)) | Atrial EC25 [1, 4] | Skeletal EC25 ([2]; Y75 value) | Ventricular EC25 ([3]; Y75 value) | Atrial EC25 ([1]; Y75 value (no ‡ mark))
17 | Cc1c(CC(=O)N[C@H](C)c2ncc(C#N)cc2F)c(=O)[nH]c2cccc(C#N)c12 [compound 1080] | – | 120 nM | 360 nM | – | – | – | 0.21 µM
18 | C[C@@H](NC(=O)C1(c2cc3c(F)c(F)ccc3[nH]c2=O)CC1)c1ccc(F)cc1F [compound 4813] | – | 910 nM | 100000 nM | – | – | – | 0.37 µM
19 | Cc1nccc2[nH]c(=O)c(CC(=O)N[C@H](C)c3ccc(C#N)cc3F)c(Cl)c12 [compound 151] | – | – | – | 0.44 µM | 110 nM | 870 nM | –
20 | Cc1nc(C#N)ncc1[C@@H](C)NC(=O)Cc1c(C)c2cc(F)ccc2[nH]c1=O [compound 1052] | – | 780 nM | 7050 nM | – | – | – | 0.65 µM
21 | COc1ccc2[nH]c(=O)c(CC(=O)N[C@@H](C)c3ccc(F)cc3F)c(C)c2c1C#N [compound 1153] | – | 660 nM | 2860 nM | – | – | – | 0.89 µM
22 | N#Cc1cnc2c(c1)CC[C@@H]2NC(=O)C1(c2cc3c(F)c(F)ccc3[nH]c2=O)CC1 (single isomer, unassigned) [compound 4824] | – | 8800 nM | 100000 nM | – | – | – | 100.00 µM
23 | C[C@H](NC(=O)Cc1cc2c(Cl)c(O)ccc2[nH]c1=O)c1ccc(F)cc1F [compound 91] | – | 3550 nM | 100000 nM | – | – | – | 1.38 µM
24 | C[C@H](NC(=O)[C@@H](C)c1c(C(F)(F)F)c2cc(F)ccc2[nH]c1=O)c1ccc(F)cc1F (single isomer, unassigned) [compound 57] | – | 70 nM | 100000 nM | – | – | – | 0.15 µM
25 | COc1ccc2[nH]c(=O)c(CC(=O)N[C@@H](C)c3ccc(F)cc3F)cc2c1C#N [Compound 81, (S)-2-(5-Cyano-6-methoxy-2-oxo-1,2-dihydroquinolin-3-yl)-N-(1-(2,4-difluorophenyl)ethyl) acetamide] | – | 51890 nM | 100000 nM | – | – | – | 100.00 µM
26 | Cc1c(O)ccc2[nH]c(=O)c(CC(=O)N[C@@H](C)c3ncc(F)cc3F)cc12 (single isomer, unassigned) [compound 78] | – | 6600 nM | 100000 nM | – | – | – | 7.08 µM
27 | Cc1c(CC(=O)N[C@@H]2COc3cc(F)cc(F)c32)c(=O)[nH]c2ccnc(C#N)c12 (single isomer, unassigned) [compound 273] | – | – | – | 2.50 µM | 970 nM | 4080 nM | –
28 | C[C@H](NC(=O)Cc1cc2cc(C3CC3)ccc2[nH]c1=O)c1ccc(F)cc1F [compound 117] | – | 6320 nM | 100000 nM | – | – | – | 100.00 µM
29 | Cc1nccc2[nH]c(=O)c(CC(=O)N[C@H]3COc4cc(C#N)cc(F)c43)c(C)c12 (single isomer, unassigned) [compound 178] | – | – | – | 4.55 µM | 1840 nM | 20240 nM | –
30 | Cc1cc([C@H](C)NC(=O)Cc2cc3c(C#N)nccc3[nH]c2=O)ncc1F [compound 471] | – | – | – | 100.00 µM | 100000 nM | 67580 nM | –
31 | Cc1c([C@@H](C)C(=O)N[C@@H](C)c2ccc(F)cc2F)c(=O)[nH]c2ccc(C(F)(F)F)nc12 (single isomer, unassigned) [compound 370] | – | – | – | 0.06 µM | 510 nM | 48160 nM | –
